Experimental data taken from patent US8575214B2, “MGlu 2/3 agonists” (Eli Lilly and Company, priority 2012, dated 2013).

Experiments:
[1] = both, human, pH 7.4
Protocol: Liver S9 fractions are obtained from Xenotech LLC (Lenexa, Mo.). The lot is from a pool of two donors, one male and one female. The liver S9 fraction is prepared and diluted using a homogenization buffer consisting of 50 mM Tris, pH 7.4 at 4° C. and 150 mM potassium chloride without EDTA. Prodrugs are incubated in the liver homogenate for 2 hours at 37° C., after which the concentration of active metabolite is determined by LC/MS/MS. Hydrolysis of Clopidogrel to Clopidogrel Carboxylic Acid is utilized as an assay positive control.
To ensure hydrolysis is not due to chemical instability, prodrugs are also incubated with PBS buffer alone without liver S-9.
A mobile phase gradient is utilized starting mobile phase ratio A/B of 99.9/0.1 and finishing at 1/99.

[2] = molecular target: T1, human mGlu3 receptor (Homo sapiens, UniProt Q14832); experiment: Human mGlu3 agonist FLIPR assay; type: cell-based; settings: AV-12 cells expressing human mGlu3, EAAT1 and Gα15; relative EC50; ±52.5 SEM, n=8; read-out: EC50 in the hmGlu3 FLIPR assay
T1 construct: expressed in transfected cells; host or cells: AV-12 cells (Syrian hamster fibroblasts), co-transfected with rat EAAT1 and Galpha15
From the text: (§1) AV-12 cell lines, derived from Syrian Hamster fibroblasts and stably expressing the human mGlu2 or mGlu3 receptor and co-transfected with the rat glutamate transporter EAAT 1 (Excitatory Amino Acid Transporter 1) and the Gα15 subunit, are used for these studies. The expression of Gα15 allows Gi-coupled receptors to signal through the phospholipase C pathway, resulting in the ability to measure receptor activation by a fluorometric calcium response assay. […] Intracellular calcium levels are monitored before and after the addition of compounds using a Fluorometric Imaging Plate Reader (FLIPR, Molecular Devices). […] Results are analyzed using Prism v4.03 (GraphPad Software). […] After taking an initial 5-sec fluorescent read on the FLIPR instrument, a compound of the invention is added to the cell plate (50 μL per well). […] The compound effect is measured as maximal minus minimal peak heights in relative fluorescent units (RFUs) corrected for basal fluorescence measured in the absence of glutamate. […] Agonist effects are quantified as percent stimulation induced by compound alone relative to the maximal glutamate response. All data are calculated as relative EC50 values using a four-parameter logistic curve fitting program (ActivityBase v5.3.1.22).

[3] = molecular target: T2, human mGlu2 receptor (Homo sapiens, UniProt Q14416); experiment: Human mGlu2 agonist FLIPR assay; type: cell-based; settings: AV-12 cells expressing human mGlu2, EAAT1 and Gα15; relative EC50; ±5.9 SEM, n=3; read-out: EC50 in the hmGlu2 FLIPR assay
T2 construct: expressed in transfected cells; host or cells: AV-12 cells (Syrian hamster fibroblasts), co-transfected with rat EAAT1 and Galpha15
From the text: as §1

[4] = test system: male, Sprague-Dawley rats; experiment: Reversal of phencyclidine (PCP)-induced hyperlocomotor activity in rats; type: in vivo, rat
From the text: Motor activity is monitored by placing individual male, Sprague-Dawley (Harlan, Indianapolis, Ind.) rats in transparent, plastic shoe-box cages of the dimensions 45×25×20 cm, with 1 cm depth of wood chips as bedding, and a metal grill on top of the cage. Motor monitors (Kinder Scientific) consist of a rectangular rack of 12 photobeams arranged in an 8×4 formation, (or a high density grouping of 22 in a 15×7 pattern) at a height of 5 cm, with a second rack (for measuring rearing behaviors) at a height of 15 cm. The shoe box cage is placed inside of these racks, with the racks on a 3 foot high tabletop in an isolated room. A compound of the invention (active) is dosed (intraperitoneal route) within a range of 0.3-10 mg/kg, 30 minutes prior to a 5 mg/kg challenge dose of phencyclidine (PCP). A compound of the invention (prodrug) is orally dosed within a range of 0.3-30 mg/kg, in overnight fasted rats, 4 hours prior to a 5 mg/kg challenge dose of PCP. On the test day, rats are placed in the test cage and allowed to acclimate for 30 minutes prior to PCP challenge; rats are monitored for an additional 60 minutes following PCP administration.
Data analysis and ED50 calculations are conducted using GraphPad Prism (San Diego, Calif. USA). Power analyses have determined that 8-10 rats per group are needed to have appropriate statistical power for detecting treatment differences (power=0.8). A one-way analysis of variance (ANOVA) with a post-hoc Dunnett's multiple comparison test is conducted on the total 60 minute locomotor activity. ED50 calculations are performed using non-linear regression curve fitting on percent reversal transformed data for each dose.

[5] = test system: male Sprague-Dawley rats; experiment: Reversal of persistent pain induced by formalin injection; type: in vivo; settings: ip, dosed 1 hour prior to intraplantar formalin, rat
[6] = test system: Male Fischer F-344 rats; experiment: Attenuation of stress-induced hyperthermia in rats; type: in vivo; settings: rat, 1-hr pretreatment, relative to vehicle response
From the text: In many anxiety disorders, hyperthermia occurs as part of the pathology and is considered a symptom of the disease. Compounds which attenuate stress-induced hyperthermia in animals are believed to be useful in treating anxiety disorders in humans. Generalized anxiety disorder and post traumatic stress disorder are among the disorders that may be treated with such compounds. The conventional and minimally-invasive method for analyzing stress-induced hyperthermia is by measuring body temperature, and stress-induced increases in body temperature, via rectal thermometer. Male Fischer F-344 rats (Harlan, Indianapolis, Ind., USA) weighing between 275-350 g are tested. All animals are individually-housed with food and automated water available ad libitum, and maintained on a 12 h light/dark cycle (lights on at 06:00). Animals are fasted for approximately 12-18 hours before the experiment, which is conducted during the light phase. Rats are dosed intraperitoneal (IP) in a dose volume of 1 mL/kg with compounds of the invention in the range of 0.3, 1, 3, and 10, mg/kg. […]
After the pretreatment period, rats are taken individually to a brightly lit adjacent room where baseline body temperatures are determined by insertion of a rectal probe lubricated with mineral oil. Body temperature is assessed using a […] […] Ten minutes later a second body temperature measurement is recorded (T2). […]

[7] = molecular target: T3, hPepT1 (Homo sapiens, UniProt P46059); experiment: In vitro PepT1 GlySar inhibition screen and IC50 determination; type: cell-based; settings: PepT1 transiently transfected HeLa cells
T3 construct: expressed in transfected cells; host or cells: HeLa cells (ATCC), transient transfection with PepT1 DNA using FuGene6
T3 sequence (P46059 1-708): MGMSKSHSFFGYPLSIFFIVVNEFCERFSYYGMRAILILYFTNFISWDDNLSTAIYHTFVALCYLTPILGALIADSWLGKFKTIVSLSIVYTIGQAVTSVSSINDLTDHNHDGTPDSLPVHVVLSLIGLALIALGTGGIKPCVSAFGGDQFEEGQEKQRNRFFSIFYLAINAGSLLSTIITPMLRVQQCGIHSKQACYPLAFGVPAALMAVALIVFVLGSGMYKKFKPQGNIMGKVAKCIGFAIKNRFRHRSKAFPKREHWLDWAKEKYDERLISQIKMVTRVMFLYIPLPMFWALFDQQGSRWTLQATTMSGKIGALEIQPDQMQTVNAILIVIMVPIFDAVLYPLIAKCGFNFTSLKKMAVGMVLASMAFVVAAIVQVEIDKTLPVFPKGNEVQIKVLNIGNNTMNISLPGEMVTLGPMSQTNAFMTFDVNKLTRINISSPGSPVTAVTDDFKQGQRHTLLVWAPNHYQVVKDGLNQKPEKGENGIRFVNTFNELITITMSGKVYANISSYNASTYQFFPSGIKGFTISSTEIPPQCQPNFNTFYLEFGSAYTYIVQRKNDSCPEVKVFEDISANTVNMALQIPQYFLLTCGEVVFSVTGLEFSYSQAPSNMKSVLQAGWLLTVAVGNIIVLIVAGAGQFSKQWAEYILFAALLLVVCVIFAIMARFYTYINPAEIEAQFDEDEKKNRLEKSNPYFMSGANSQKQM
Protocol: HeLa cells, […], (American Type Culture Collection) are grown in Hyclone Medium (Invitrogen, Cat# SH30243) containing 10% fetal bovine serum (FBS), 0.1 mM non essential amino acids (NEAA), and 100 units/mL penicillin with 100 μg/mL streptomycin at 37° C. in a 5% CO2 humidified atmosphere. The cell line is used for up to 40 passages and then discarded. Frozen cells in 1 ml vials are thawed in water bath for 1-2 minutes and added to 5 mL of cell medium at 37° C. Each of the T-flasks is provided with 8.5 mL of the fresh medium and 1.5 mL of the cell stock. Cells are passaged twice during a week. This is achieved by rinsing the flasks with 10 mL of phosphate buffered saline-ethylene diaminetetra acetic acid (PBS-EDTA), adding 2 mL of trypsin for 2-5 minutes, to detach the cells, and adding 8 mL of fresh medium to inhibit further activity of trypsin. Each new flask receives a combination of 8.5 mL of fresh medium and 1.5 mL of cell stock, in order to obtain 1:6 cell dilution. Cells are incubated at 37° C., until ready for the uptake study.
Cells that are 70-80% confluent in the T-flasks are plated 1 day prior to the transfection procedure. The flask with the cell stock is treated with PBS-EDTA and trypsin to detach the cells, and transfection medium is used from this point. Transfection medium consists of Dulbecco's Modified Eagle Medium (DMEM)+NEAA. To each well, 0.5 mL of the cell mixture is added (1.3×10^5 is the desired cell concentration) and the cells are incubated at 37° C. overnight. Twenty four hours before the assay, cells are transfected with PEPT1. Transfection mixture is prepared by mixing 600 μL of serum free transfection medium, 18 μL of FuGene6 (Roche Diagnostics), and 11 μg of the PepT1 DNA. The transfection reagent-DNA complex is incubated for 20 minutes and 24 μL of the reagent-DNA complex is added to each well.
J. Pharm. Exper Ther. 310:437-445). […] Uptake media consists of 140 mM NaCl, 5.4 mM KCl, 1.8 mM CaCl2, 0.8 mM MgSO4, 5 mM Glucose, 25 mM tris(hydroxymethyl)aminomethane buffer (TRIS). The solution is then brought to pH 6.0 using 2-(N-morpholino)ethanesulfonic acid. The incubation volume is 500 μL and is performed at room temperature for 3 minutes. To stop the uptake at the conclusion of the incubation time, the uptake media is aspirated off of the cell monolayer and 500 μL of ice cold PBS added to the well. The cells are washed 3 times with 500 μL of room temperature PBS without Ca^+2 and Mg^+2. The cells are then lysed with 300 μL of 1% Triton X100 H2O solution. […] A no inhibitor control is established and the percent inhibition of each prodrug is calculated with respect to this control.
The incubation and sampling procedures are exactly the same as the PepT1 screen described above.

[8] = 1 h, 10 µM, pH 7.4
Protocol: Frozen human duodenum intestinal homogenates (1:2 tissue:buffer ratio using 100 mM Tris Phosphate buffer, pH 7.4) are obtained from Celsius In Vitro Technologies (Baltimore, Md.) that were both phenylmethylsulphonylfluoride (PMSF) and EDTA free.
All original tissue collections are performed at 4° C. and immediately frozen at −70° C. Human intestinal homogenates are thawed and diluted to a final protein concentration of 0.5 mg/mL in 100 mM PBS buffer, pH 7.4 immediately prior to the incubations.
Incubations are conducted in 96-well plates and all prodrugs are run in duplicate on each day. Stock prodrug solutions are prepared in water at a concentration of 1 mM. A 200 μL aliquot of 0.5 mg/mL intestinal homogenate and 196 μL of 100 mM PBS buffer are placed in a 96-well plate in a 37° C. water bath. Using a 96-well pipettor, 4 μL of the 1 mM prodrug solution is transferred into the homogenate. Immediately after addition of the prodrug (time zero) and after 1 hour incubation, 50 μL samples of the incubation mixture are removed using an automated disposable simultaneous 96 well pipettor and added directly to 200 μL of methanol quench solution containing 100 ng/mL of Internal Standard. The samples are then centrifuged at 3500 rpm for 5 minutes at 10° C. The supernatant (200 μL) is transferred to a final 96 well PCR plate and sealed for analysis by LC/MS/MS.
Concentrations of hydrolyzed active metabolite in the incubation mixtures are determined using LC/MS/MS detection on a Sciex API 4000 quadrapole mass spectrometer with Analyst version 1.4.2, TurbolonSpray, positive ionization, and Selected Reaction Monitoring (SRM). […]
Averages and standard deviations are calculated using Microsoft® Office Excel® 2007. Amount of hydrolysis is determined as a molar percentage of active metabolite formed relative to prodrug concentration added.

T1 sequence (Q14832 23-879): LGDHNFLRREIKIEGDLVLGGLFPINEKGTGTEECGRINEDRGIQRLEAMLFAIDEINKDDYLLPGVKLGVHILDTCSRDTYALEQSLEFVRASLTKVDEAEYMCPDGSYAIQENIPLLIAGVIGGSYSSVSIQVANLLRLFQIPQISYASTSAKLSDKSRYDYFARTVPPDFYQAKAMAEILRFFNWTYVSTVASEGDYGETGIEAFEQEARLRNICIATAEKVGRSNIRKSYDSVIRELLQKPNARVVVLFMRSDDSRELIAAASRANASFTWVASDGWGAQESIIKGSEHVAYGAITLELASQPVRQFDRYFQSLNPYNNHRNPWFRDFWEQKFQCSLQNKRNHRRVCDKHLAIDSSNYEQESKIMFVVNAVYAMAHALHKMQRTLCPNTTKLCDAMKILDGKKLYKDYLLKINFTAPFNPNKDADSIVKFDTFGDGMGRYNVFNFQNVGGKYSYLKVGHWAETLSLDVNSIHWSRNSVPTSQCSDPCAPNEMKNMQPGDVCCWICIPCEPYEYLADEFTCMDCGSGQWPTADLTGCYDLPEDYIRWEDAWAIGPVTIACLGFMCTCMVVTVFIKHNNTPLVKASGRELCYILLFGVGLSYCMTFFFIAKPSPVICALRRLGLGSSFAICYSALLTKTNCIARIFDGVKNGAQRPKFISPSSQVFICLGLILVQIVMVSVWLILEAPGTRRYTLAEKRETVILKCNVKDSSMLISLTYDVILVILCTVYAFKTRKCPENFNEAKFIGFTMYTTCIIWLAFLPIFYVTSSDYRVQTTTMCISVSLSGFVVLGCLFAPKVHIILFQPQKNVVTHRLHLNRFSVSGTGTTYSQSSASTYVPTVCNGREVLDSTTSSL
T2 sequence (Q14416 19-872): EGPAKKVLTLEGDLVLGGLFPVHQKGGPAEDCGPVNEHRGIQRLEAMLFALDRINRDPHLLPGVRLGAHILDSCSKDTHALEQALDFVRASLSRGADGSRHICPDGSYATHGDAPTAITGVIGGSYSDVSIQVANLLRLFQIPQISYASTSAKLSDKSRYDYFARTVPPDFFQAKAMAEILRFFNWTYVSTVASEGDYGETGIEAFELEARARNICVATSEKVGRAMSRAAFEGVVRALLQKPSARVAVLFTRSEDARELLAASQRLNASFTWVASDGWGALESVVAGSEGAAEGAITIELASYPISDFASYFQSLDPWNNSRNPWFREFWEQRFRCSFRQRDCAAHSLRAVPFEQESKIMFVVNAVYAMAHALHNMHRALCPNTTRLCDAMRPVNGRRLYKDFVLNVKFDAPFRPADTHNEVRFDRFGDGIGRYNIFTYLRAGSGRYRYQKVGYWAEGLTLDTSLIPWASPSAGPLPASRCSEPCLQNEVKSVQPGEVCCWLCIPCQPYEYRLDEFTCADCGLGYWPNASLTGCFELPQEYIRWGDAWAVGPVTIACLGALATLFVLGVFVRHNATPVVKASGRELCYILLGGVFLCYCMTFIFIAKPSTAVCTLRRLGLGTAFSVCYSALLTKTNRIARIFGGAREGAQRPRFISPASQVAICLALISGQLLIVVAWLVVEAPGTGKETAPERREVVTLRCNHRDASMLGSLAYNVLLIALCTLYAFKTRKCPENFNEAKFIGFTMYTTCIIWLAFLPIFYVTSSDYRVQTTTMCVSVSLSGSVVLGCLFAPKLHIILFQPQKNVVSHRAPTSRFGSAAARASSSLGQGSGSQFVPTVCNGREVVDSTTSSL

SMILES | Hydrolysis of Clopidogrel to Clopidogrel Carboxylic Acid (positive control) [1] [%] | EC50 [2] [µM] | EC50 [3] [µM] | ED50 ([4]; 0.5 h, i.p., 30 minutes prior to 5 mg/kg PCP, rat) [mg/kg] | ED50 [5] [mg/kg] | T35 (dose producing a 35% reduction in stress-induced hyperthermic response) [6] [mg/kg] | ED50 ([4]; Rattus norvegicus, p.o., overnight fasted rats, 4 hours prior to 5 mg/kg PCP) [mg/kg] | IC50 ([7]; 0.0625 to 25 mM, read-out: hPepT1 [3H]Gly-Sar uptake inhibition IC50) [µM] | inhibition at 5000 µM ([7]; pH 6.0, 3 minutes, read-out: hPepT1 [3H]Gly-Sar uptake inhibition at 5 mM) [%] | human intestinal hydrolysis relative to Internal Prodrug A [8] [%]
COC(=O)[C@H](c1ccccc1Cl)N1CCc2sccc2C1 [Clopidogrel] | 73.0 |  |  |  |  |  |  |  |  | 
N[C@@]1(C(=O)O)CC2(CC2)[C@H]2[C@H](C(=O)O)[C@H]21 [Example 2, (1S,2S,5R,6S)-2-Aminospiro[bicyclo[3.1.0]hexane-4,1′-cyclopropane]-2,6-dicarboxylic acid] |  | 0.285 | 0.039 | 1.46 | 0.7 | 0.57 |  |  |  | 
C[C@H](N)C(=O)N[C@@]1(C(=O)O)CC2(CC2)[C@H]2[C@H](C(=O)O)[C@H]21.Cl [Example 5, (1S,2S,5R,6S)-2-[[(2S)-2-Aminopropanoyl]amino]spiro[bicyclo[3.1.0]hexane-4,1′-cyclopropane]-2,6-dicarboxylic acid hydrochloride] |  |  |  |  |  | 6.4 | 2.95 | 1980 | 89 | 36
